The source of these data is the supplement of paper PMC10307832.

Holding throughout (assay): relative viability (nuclei count vs DMSO), 5 days (fraction); higher = more cells survive
Compound in the experiment “MK-8033 + OSI-027”: Cn1cc(-c2cnc3ccc4ccc(CS(=O)(=O)NCc5ccccn5)cc4c(=O)c3c2)cn1 [MK-8033] + COc1cccc2cc(-c3nc([C@H]4CC[C@H](C(=O)O)CC4)n4ncnc(N)c34)[nH]c12 [OSI-027] (partner 0.5 µM)
An outline of the steps:
(§1)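 Cells from lung cancer lines were seeded into 1536-well plates and, one day later, dosed by pin tool. Treatments were either a single drug or a fixed dose of an anchor drug with five library-drug doses (not always all listed) in √10 steps. After 5 days, nuclei were stained in a one-step fixation (final 0.05% Triton X-100, 1% formaldehyde, 1 ug/ml Hoechst) and counted on 4× images, and relative viability is the treated-to-vehicle nuclei ratio, as the median of duplicate plates.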

Compound in the experiment “Irinotecan + Linsitinib”: CCc1c2c(nc3ccc(OC(=O)N4CCC(N5CCCCC5)CC4)cc13)-c1cc3c(c(=O)n1C2)COC(=O)[C@]3(O)CC [Irinotecan] + C[C@]1(O)C[C@@H](c2nc(-c3ccc4ccc(-c5ccccc5)nc4c3)c3c(N)nccn32)C1 [Linsitinib] (partner 1 µM)
An outline of the steps:
as §1

Compound in the experiment “MK-8033 + Pemetrexed”: Cn1cc(-c2cnc3ccc4ccc(CS(=O)(=O)NCc5ccccn5)cc4c(=O)c3c2)cn1 [MK-8033] + Nc1nc2[nH]cc(CCc3ccc(C(=O)N[C@@H](CCC(=O)O)C(=O)O)cc3)c2c(=O)[nH]1 [Pemetrexed] (partner 0.2 µM)
An outline of the steps:
as §1

Compound in the experiment “MK-8033 + Luminespib”: Cn1cc(-c2cnc3ccc4ccc(CS(=O)(=O)NCc5ccccn5)cc4c(=O)c3c2)cn1 [MK-8033] + CCNC(=O)c1noc(-c2cc(C(C)C)c(O)cc2O)c1-c1ccc(CN2CCOCC2)cc1 [Luminespib] (partner 0.01 µM)
The method, boiled down:
as §1

As to NCI-H1755, the relative viability with MK-8033 + OSI-027 (first compound 0.02 µM) came out at 0.625; in the experiment with MK-8033 + OSI-027 (first compound 0.06325 µM), 0.676; with MK-8033 + OSI-027 (first compound 0.2 µM) it was 0.681; in the experiment with MK-8033 + OSI-027 (first compound 0.6325 µM), 0.717; in the experiment with MK-8033 + OSI-027 (first compound 2 µM), 0.822; with Irinotecan + Linsitinib (first compound 0.6325 µM) it was 0.927. For the same cell line, the relative viability in the experiment with Irinotecan + Linsitinib (first compound 2 µM) came out at 0.396; with Irinotecan + Linsitinib (first compound 6.325 µM) it was 0.303; with Irinotecan + Linsitinib (first compound 20 µM), 0.366; in the experiment with MK-8033 + Pemetrexed (first compound 0.02 µM), 0.481; with MK-8033 + Pemetrexed (first compound 0.06325 µM), 0.394; with MK-8033 + Pemetrexed (first compound 0.2 µM), 0.383. Moreover, the relative viability with MK-8033 + Pemetrexed (first compound 0.6325 µM) is 0.336; in the experiment with MK-8033 + Pemetrexed (first compound 2 µM), 0.375; in the experiment with MK-8033 + Luminespib (first compound 0.02 µM), 0.371; with MK-8033 + Luminespib (first compound 0.06325 µM), 0.387; with MK-8033 + Luminespib (first compound 0.2 µM) it was 0.411; in the experiment with MK-8033 + Luminespib (first compound 0.6325 µM), 0.282. Further, the relative viability in the experiment with MK-8033 + Luminespib (first compound 2 µM) turned out to be 0.467.

With NCI-H1792, the relative viability with MK-8033 + OSI-027 (first compound 0.02 µM) came out at 0.655; with MK-8033 + OSI-027 (first compound 0.06325 µM), 0.611; with MK-8033 + OSI-027 (first compound 0.2 µM), 0.683; with MK-8033 + OSI-027 (first compound 0.6325 µM) it was 0.628; with MK-8033 + OSI-027 (first compound 2 µM), 0.512; with Irinotecan + Linsitinib (first compound 0.6325 µM), 0.613. In addition, the relative viability was determined as 0.528 in the experiment with Irinotecan + Linsitinib (first compound 2 µM); 0.21 with Irinotecan + Linsitinib (first compound 6.325 µM); 0.107 with Irinotecan + Linsitinib (first compound 20 µM); 0.789 in the experiment with MK-8033 + Pemetrexed (first compound 0.02 µM); 0.64 with MK-8033 + Pemetrexed (first compound 0.06325 µM); 0.62 in the experiment with MK-8033 + Pemetrexed (first compound 0.2 µM). For the same cell line, the relative viability amounted to 0.69 in the experiment with MK-8033 + Pemetrexed (first compound 0.6325 µM); 0.872 with MK-8033 + Pemetrexed (first compound 2 µM); 0.383 with MK-8033 + Luminespib (first compound 0.02 µM); 0.34 in the experiment with MK-8033 + Luminespib (first compound 0.06325 µM); 0.442 in the experiment with MK-8033 + Luminespib (first compound 0.2 µM); 0.217 with MK-8033 + Luminespib (first compound 0.6325 µM). For the same cell line, the relative viability with MK-8033 + Luminespib (first compound 2 µM) stood at 0.273.

As to NCI-H1793, the relative viability with MK-8033 + OSI-027 (first compound 0.02 µM) came to 0.247; with MK-8033 + OSI-027 (first compound 0.06325 µM), 0.253; in the experiment with MK-8033 + OSI-027 (first compound 0.2 µM) it was 0.233; with MK-8033 + OSI-027 (first compound 0.6325 µM), 0.282; in the experiment with MK-8033 + OSI-027 (first compound 2 µM) it was 0.2; in the experiment with Irinotecan + Linsitinib (first compound 2 µM), 0.609. The relative viability with Irinotecan + Linsitinib (first compound 6.325 µM) worked out at 0.272; in the experiment with Irinotecan + Linsitinib (first compound 20 µM) it was 0.341; with MK-8033 + Pemetrexed (first compound 0.02 µM) it was 0.682; with MK-8033 + Pemetrexed (first compound 0.2 µM), 0.725; with MK-8033 + Pemetrexed (first compound 0.6325 µM), 0.739; with MK-8033 + Pemetrexed (first compound 2 µM) it was 0.729. Besides, the relative viability worked out at 0.174 with MK-8033 + Luminespib (first compound 0.02 µM); 0.217 with MK-8033 + Luminespib (first compound 0.06325 µM); 0.161 with MK-8033 + Luminespib (first compound 0.2 µM); 0.209 with MK-8033 + Luminespib (first compound 0.6325 µM); 0.162 with MK-8033 + Luminespib (first compound 2 µM).

For NCI-H1915, the relative viability with MK-8033 + OSI-027 (first compound 0.02 µM) worked out at 0.649; with MK-8033 + OSI-027 (first compound 0.06325 µM) it was 0.559; in the experiment with MK-8033 + OSI-027 (first compound 0.2 µM), 0.62; with MK-8033 + OSI-027 (first compound 0.6325 µM) it was 0.65; with MK-8033 + OSI-027 (first compound 2 µM), 0.596; with Irinotecan + Linsitinib (first compound 0.6325 µM), 0.374. The relative viability with Irinotecan + Linsitinib (first compound 2 µM) was 0.238; with Irinotecan + Linsitinib (first compound 6.325 µM) it was 0.187; in the experiment with Irinotecan + Linsitinib (first compound 20 µM) it was 0.171; with MK-8033 + Pemetrexed (first compound 0.02 µM) it was 0.51; with MK-8033 + Pemetrexed (first compound 0.06325 µM) it was 0.491; with MK-8033 + Pemetrexed (first compound 0.2 µM), 0.497. The relative viability came out at 0.472 in the experiment with MK-8033 + Pemetrexed (first compound 0.6325 µM); 0.428 with MK-8033 + Pemetrexed (first compound 2 µM); 0.728 with MK-8033 + Luminespib (first compound 0.02 µM); 0.8 in the experiment with MK-8033 + Luminespib (first compound 0.06325 µM); 0.676 in the experiment with MK-8033 + Luminespib (first compound 0.2 µM); 0.827 in the experiment with MK-8033 + Luminespib (first compound 0.6325 µM). In the experiment with MK-8033 + Luminespib (first compound 2 µM), the relative viability was found to be 0.668.

Take NCI-H1944: the relative viability with MK-8033 + OSI-027 (first compound 0.02 µM) worked out at 0.436; with MK-8033 + OSI-027 (first compound 0.06325 µM) it was 0.292; with MK-8033 + OSI-027 (first compound 0.2 µM) it was 0.4; in the experiment with MK-8033 + OSI-027 (first compound 0.6325 µM), 0.4; in the experiment with MK-8033 + OSI-027 (first compound 2 µM), 0.404; with Irinotecan + Linsitinib (first compound 0.6325 µM) it was 0.819. Also, the relative viability was determined as 0.38 in the experiment with Irinotecan + Linsitinib (first compound 2 µM); 0.241 with Irinotecan + Linsitinib (first compound 6.325 µM); 0.249 in the experiment with Irinotecan + Linsitinib (first compound 20 µM); 0.703 with MK-8033 + Pemetrexed (first compound 0.02 µM); 0.478 with MK-8033 + Pemetrexed (first compound 0.06325 µM); 0.676 with MK-8033 + Pemetrexed (first compound 0.2 µM). Moreover, the relative viability came out at 0.583 with MK-8033 + Pemetrexed (first compound 0.6325 µM); 0.613 with MK-8033 + Pemetrexed (first compound 2 µM); 0.742 with MK-8033 + Luminespib (first compound 0.02 µM); 0.62 in the experiment with MK-8033 + Luminespib (first compound 0.06325 µM); 0.708 with MK-8033 + Luminespib (first compound 0.2 µM); 0.719 with MK-8033 + Luminespib (first compound 0.6325 µM). In addition, the relative viability with MK-8033 + Luminespib (first compound 2 µM) stood at 0.653.

Regarding NCI-H1975, the relative viability with MK-8033 + OSI-027 (first compound 0.02 µM) worked out at 0.692; in the experiment with MK-8033 + OSI-027 (first compound 0.06325 µM), 0.645; in the experiment with MK-8033 + OSI-027 (first compound 0.2 µM) it was 0.563; with MK-8033 + OSI-027 (first compound 2 µM), 0.571; with Irinotecan + Linsitinib (first compound 0.6325 µM), 1.1; with Irinotecan + Linsitinib (first compound 2 µM) it was 0.803. In addition, the relative viability in the experiment with Irinotecan + Linsitinib (first compound 6.325 µM) was found to be 0.326; with Irinotecan + Linsitinib (first compound 20 µM) it was 0.204; with MK-8033 + Pemetrexed (first compound 0.02 µM), 0.263; with MK-8033 + Pemetrexed (first compound 0.06325 µM), 0.259; with MK-8033 + Pemetrexed (first compound 0.2 µM) it was 0.276; with MK-8033 + Pemetrexed (first compound 0.6325 µM), 0.281. Further, the relative viability with MK-8033 + Pemetrexed (first compound 2 µM) came to 0.288; with MK-8033 + Luminespib (first compound 0.02 µM), 0.195; in the experiment with MK-8033 + Luminespib (first compound 0.06325 µM) it was 0.24; with MK-8033 + Luminespib (first compound 0.2 µM) it was 0.176; in the experiment with MK-8033 + Luminespib (first compound 0.6325 µM) it was 0.203; with MK-8033 + Luminespib (first compound 2 µM) it was 0.15.

On to NCI-H1993, for which the relative viability with MK-8033 + OSI-027 (first compound 0.02 µM) stood at 0.519; with MK-8033 + OSI-027 (first compound 0.06325 µM), 0.583; with MK-8033 + OSI-027 (first compound 0.2 µM), 0.561; in the experiment with MK-8033 + OSI-027 (first compound 0.6325 µM), 0.598; with MK-8033 + OSI-027 (first compound 2 µM), 0.527; with Irinotecan + Linsitinib (first compound 0.6325 µM), 0.688. For the same cell line, the relative viability with Irinotecan + Linsitinib (first compound 2 µM) worked out at 0.608; with Irinotecan + Linsitinib (first compound 6.325 µM), 0.643; with Irinotecan + Linsitinib (first compound 20 µM) it was 0.693; with MK-8033 + Pemetrexed (first compound 0.02 µM) it was 0.537; with MK-8033 + Pemetrexed (first compound 0.06325 µM), 0.58; in the experiment with MK-8033 + Pemetrexed (first compound 0.2 µM) it was 0.498. Besides, the relative viability with MK-8033 + Pemetrexed (first compound 0.6325 µM) is 0.575; in the experiment with MK-8033 + Pemetrexed (first compound 2 µM), 0.46; with MK-8033 + Luminespib (first compound 0.02 µM), 0.733; with MK-8033 + Luminespib (first compound 0.06325 µM), 0.838; in the experiment with MK-8033 + Luminespib (first compound 0.2 µM), 0.827; in the experiment with MK-8033 + Luminespib (first compound 0.6325 µM), 0.964. Moreover, the relative viability with MK-8033 + Luminespib (first compound 2 µM) is 0.73.

For NCI-H2009, the relative viability was found to be 0.628 with MK-8033 + OSI-027 (first compound 0.02 µM); 0.612 with MK-8033 + OSI-027 (first compound 0.06325 µM); 0.597 with MK-8033 + OSI-027 (first compound 0.2 µM); 0.617 with MK-8033 + OSI-027 (first compound 0.6325 µM); 0.626 with MK-8033 + OSI-027 (first compound 2 µM); 0.876 in the experiment with Irinotecan + Linsitinib (first compound 0.6325 µM). For the same cell line, the relative viability was determined as 0.493 with Irinotecan + Linsitinib (first compound 2 µM); 0.262 with Irinotecan + Linsitinib (first compound 6.325 µM); 0.221 with Irinotecan + Linsitinib (first compound 20 µM); 1.01 with MK-8033 + Pemetrexed (first compound 0.02 µM); 1.01 in the experiment with MK-8033 + Pemetrexed (first compound 0.06325 µM); 0.923 with MK-8033 + Pemetrexed (first compound 0.2 µM). Moreover, the relative viability in the experiment with MK-8033 + Pemetrexed (first compound 0.6325 µM) stood at 1.08; with MK-8033 + Pemetrexed (first compound 2 µM) it was 0.997; with MK-8033 + Luminespib (first compound 0.02 µM), 0.987; in the experiment with MK-8033 + Luminespib (first compound 0.06325 µM), 0.921; with MK-8033 + Luminespib (first compound 0.2 µM), 0.978; in the experiment with MK-8033 + Luminespib (first compound 0.6325 µM), 0.999. For the same cell line, the relative viability with MK-8033 + Luminespib (first compound 2 µM) worked out at 1.
